Experimental data as given in the supplement of paper PMC10307832.

Tests used:
Test in all cases: relative viability (nuclei count vs DMSO), 5 days (fraction); higher = more cells survive
[1] = compound: CC1=C(CC(=O)O)c2cc(F)ccc2/C1=C\c1ccc([S+](C)[O-])cc1 [Sulindac]
How it was run: (§1)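 Five library-drug doses spaced by √10 were pinned onto vehicle-anchored 1536-well plates of lung cancer cell lines that had been kept overnight at 37 °C. Cells went 5 days without medium change, then were fixed, permeabilised and Hoechst-stained together, imaged at 4× and counted by MetaXpress. Viability is the ratio of treated-well to vehicle-well nuclei, taken as a median over plates. Plates required control CV below 25% and at least one doubling.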

[2] = compound: CN[C@@H]1C[C@H]2O[C@@](C)([C@@H]1OC)n1c3ccccc3c3c4c(c5c6ccccc6n2c5c31)C(=O)NC4 [Staurosporine]
How it was run: as §1

[3] = compound: O=c1[nH]cc(F)c(=O)[nH]1 [5-Fluorouracil]
How it was run: as §1

Cell Line	relative viability ([1]; 0.08 µM)	relative viability ([1]; 0.253 µM)	relative viability ([1]; 0.8 µM)	relative viability ([1]; 2.53 µM)	relative viability ([1]; 8 µM)	relative viability ([2]; 0.005 µM)	relative viability ([2]; 0.01581 µM)	relative viability ([2]; 0.05 µM)	relative viability ([2]; 0.1581 µM)	relative viability ([2]; 0.5 µM)	relative viability ([3]; 0.02 µM)	relative viability ([3]; 0.2 µM)	relative viability ([3]; 0.6325 µM)	relative viability ([3]; 2 µM)
NCI-H650	1.1	1.04	0.91	0.849	1.27	0.63	0.321	0.236	0.229	0.252	0.904	0.648	0.411	0.381
NCI-H1563	0.898	0.973	0.936	0.967	1.14	0.724	0.592	0.542	0.547		0.952	1.01	1	0.815
NCI-H596	0.975	1.03	0.846	1.02	1.04		0.54	0.792	0.204	0.151	1.01	0.981	0.718	0.439
HCC-366	1.2	1.08	0.757	1	1.08	1.05		0.911	0.15	0.0345	1.03	1.02	0.687	0.138
NCI-H2087	1.05	1.13	0.954	1.05	1.28	0.927	0.561	0.243	0.0918	0.0911	0.992	1.02	0.688	0.571
NCI-H2342	0.912	0.946	0.843	0.99	0.99	1.09	0.652	0.525	0.461	0.36	0.955	1.02	0.894	0.783
RERF-LC-KJ	1.09	1.09	0.814	1.06	1.02	0.95	0.682	0.501	0.237	0.211	1.05	0.912	0.975	0.828
HOP-62	1.17	1.13	0.926	1.13	1.09	0.83	0.298	0.183	0.138	0.109	1.03	1	0.971	0.877
NCI-H2126	0.975	1.01	0.842	1.03	1.05	0.875	0.397	0.582	0.391	0.303	0.915	0.532	0.356	0.351
SW 1573	1.05	1.09	0.861	0.999	1.21	0.622	0.277	0.187	0.137	0.076	1.01	1.03	0.938	0.532
NCI-H1793	0.904	0.993	0.722	0.953	0.908	0.921		0.628	0.205	0.152	0.968	1.18	0.985	0.554
